From the supplement of paper PMC10307832

What was measured:
Assay in all cases: relative viability (nuclei count vs DMSO), 5 days (fraction); higher = more cells survive
[1] = compound: CC(O)(CS(=O)(=O)c1ccc(F)cc1)C(=O)Nc1ccc(C#N)c(C(F)(F)F)c1 [Bicalutamide] + COc1cccc2cc(-c3nc([C@H]4CC[C@H](C(=O)O)CC4)n4ncnc(N)c34)[nH]c12 [OSI-027] (partner 0.5 µM)
In short: (§1)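 Each reported value is a median over duplicate plates. It expresses relative viability: treated-well nuclei count divided by vehicle-well nuclei count. Lung cancer cell lines in 1536-well plates were dosed by pin tool a day after seeding, alone with one drug or with a fixed anchor-drug dose plus five library-drug doses (not always all listed) in √10 steps, and nuclei were counted after 5 days.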

[2] = compound: CC(O)(CS(=O)(=O)c1ccc(F)cc1)C(=O)Nc1ccc(C#N)c(C(F)(F)F)c1 [Bicalutamide] + CS(=O)(=O)CCNCc1ccc(-c2ccc3ncnc(Nc4ccc(OCc5cccc(F)c5)c(Cl)c4)c3c2)o1 [Lapatinib] (partner 2 µM)
In short: as §1

[3] = compound: CC(O)(CS(=O)(=O)c1ccc(F)cc1)C(=O)Nc1ccc(C#N)c(C(F)(F)F)c1 [Bicalutamide] + Nc1nc2[nH]cc(CCc3ccc(C(=O)N[C@@H](CCC(=O)O)C(=O)O)cc3)c2c(=O)[nH]1 [Pemetrexed] (partner 0.2 µM)
In short: as §1

[4] = compound: C(C(=O)C(=O)O)Br [Bromopyruvate] + COc1cc2c(Oc3ccc(NC(=O)C4(C(=O)Nc5ccc(F)cc5)CC4)cc3F)ccnc2cc1OCCCN1CCOCC1 [Foretinib] (partner 0.25 µM)
In short: as §1

Row | Cell Line | relative viability ([1]; first compound 0.08 µM) | relative viability ([1]; first compound 0.253 µM) | relative viability ([1]; first compound 0.8 µM) | relative viability ([1]; first compound 2.53 µM) | relative viability ([2]; first compound 0.08 µM) | relative viability ([2]; first compound 0.253 µM) | relative viability ([2]; first compound 0.8 µM) | relative viability ([2]; first compound 2.53 µM) | relative viability ([3]; first compound 0.08 µM) | relative viability ([3]; first compound 0.253 µM) | relative viability ([3]; first compound 0.8 µM) | relative viability ([3]; first compound 2.53 µM) | relative viability ([4]; first compound 1 µM) | relative viability ([4]; first compound 3.162 µM) | relative viability ([4]; first compound 10 µM) | relative viability ([4]; first compound 31.62 µM) | relative viability ([4]; first compound 100 µM)
1 | NCI-H520 | 0.237 | 0.228 | 0.373 | 0.251 | 0.817 | 0.674 | 1.01 | 0.779 | 0.846 | 0.635 | 0.81 | 0.635 | 0.83 | 0.805 | 0.646 | 0.859 | 0.895
2 | NCI-H596 | 0.854 | 0.659 | 0.845 | 0.763 | 1.02 | 1.17 | 1.16 | 1.18 | 0.489 | 0.459 | 0.56 | 0.552 | 0.86 | 0.946 | 1.02 | 0.685 | 0.232
3 | NCI-H647 | 0.543 | 0.628 | 0.79 | 0.585 | 1.07 | 0.954 | 1.75 | 0.748 | 0.187 | 0.172 | 0.172 | 0.151 | 1.26 | 1.2 | 1.31 | 1.21 | 1.06
4 | NCI-H650 | 0.559 | 0.507 | 0.524 | 0.432 | 1.04 | 1.07 | 1.07 | 0.644 | 0.88 | 0.932 | 0.994 | 0.992 | 1.04 | 1.03 | 1.16 | 1.01 | 0.948
5 | NCI-H661 | 0.719 | 0.691 | 0.839 | 0.699 | 0.482 | 0.493 | 0.447 | 0.493 | 0.939 | 0.965 | 0.942 | 0.896 | 1.02 | 1.02 | 1.05 | 1.02 | 0.994
6 | NCI-H838 | 0.435 | 0.333 | 0.449 | 0.36 | 1.09 | 0.881 | 1.38 | 0.734 | 0.272 | 0.232 | 0.261 | 0.243 | 1.03 | 1.08 | 1.07 | 1.05 | 1.03
7 | NCI-H1355 | 0.433 | 0.367 | 0.464 | 0.4 | 1 | 0.902 | 0.974 | 1.03 | 1.04 | 0.992 | 1.1 | 0.999 | 0.954 | 0.966 | 1.08 | 0.909 | 0.995
8 | NCI-H1395 | 0.781 | 0.538 | 0.76 | 0.454 | 0.858 | 0.956 | 1.29 | 0.869 | 0.89 | 0.766 | 0.965 | 0.709 | 0.975 | 0.838 | 1.14 | 1.03 | 1.01
9 | NCI-H1437 | 0.969 | 0.776 | 0.973 | 0.841 | 0.826 | 0.736 | 1.01 | 0.711 | 0.312 | 0.303 | 0.349 | 0.316 | 1.26 | 1.28 | 1.27 | 1.28 | 1.25
